pKi: −log10 of the molar value. Like-named read-outs stand apart in the source and are kept apart here.
Columns and labels:
[1] = target: T1, proline utilization A (SmPutA) (Sinorhizobium meliloti, UniProt F7X6I3); experiment: X-ray crystal structure ([…] Å); Ki from GSALDH activity inhibition; assay type: biochemical
T1 construct: gene putA; bifunctional PRODH-GSALDH enzyme, His tag removed
T1 sequence (F7X6I3 1-1233): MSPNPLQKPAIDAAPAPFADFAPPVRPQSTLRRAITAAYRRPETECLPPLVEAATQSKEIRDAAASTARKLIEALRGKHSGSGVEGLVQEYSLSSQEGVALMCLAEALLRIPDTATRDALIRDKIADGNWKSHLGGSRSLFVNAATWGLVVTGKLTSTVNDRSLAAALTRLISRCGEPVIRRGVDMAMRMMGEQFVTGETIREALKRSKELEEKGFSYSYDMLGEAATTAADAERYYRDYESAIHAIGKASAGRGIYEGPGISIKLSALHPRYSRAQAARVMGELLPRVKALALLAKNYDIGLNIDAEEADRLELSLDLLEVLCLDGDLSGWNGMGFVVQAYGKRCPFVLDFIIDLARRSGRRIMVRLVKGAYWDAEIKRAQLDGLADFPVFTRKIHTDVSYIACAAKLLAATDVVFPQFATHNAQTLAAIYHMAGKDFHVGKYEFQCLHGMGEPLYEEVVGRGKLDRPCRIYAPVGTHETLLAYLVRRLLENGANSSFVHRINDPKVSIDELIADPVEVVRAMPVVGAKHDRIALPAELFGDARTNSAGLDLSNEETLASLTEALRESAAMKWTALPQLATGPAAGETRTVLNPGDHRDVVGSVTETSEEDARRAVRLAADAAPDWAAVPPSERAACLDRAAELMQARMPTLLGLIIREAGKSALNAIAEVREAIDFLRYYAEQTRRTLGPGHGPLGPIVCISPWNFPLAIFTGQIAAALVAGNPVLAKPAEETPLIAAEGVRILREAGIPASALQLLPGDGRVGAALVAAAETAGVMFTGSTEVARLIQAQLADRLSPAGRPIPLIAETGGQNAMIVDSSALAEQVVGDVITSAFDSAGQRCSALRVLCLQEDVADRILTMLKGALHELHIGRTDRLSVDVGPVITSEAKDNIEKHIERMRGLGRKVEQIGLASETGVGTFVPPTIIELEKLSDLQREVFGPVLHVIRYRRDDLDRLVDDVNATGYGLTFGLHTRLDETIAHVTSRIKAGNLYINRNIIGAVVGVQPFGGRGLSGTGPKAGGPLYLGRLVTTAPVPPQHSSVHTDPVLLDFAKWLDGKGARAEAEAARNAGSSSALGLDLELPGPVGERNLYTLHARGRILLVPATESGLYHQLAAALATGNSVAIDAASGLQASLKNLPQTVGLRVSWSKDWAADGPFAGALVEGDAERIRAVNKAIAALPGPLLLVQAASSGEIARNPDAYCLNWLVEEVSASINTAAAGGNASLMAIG

[2] = target: T1, proline utilization A (SmPutA); experiment: as above; assay type: biochemical; remark: listed apart in the source

Row | Compound | pKi [1] | pKi [2]
1 | O=C(O)C1CCCNC1 (racemic) [compound 13, 13] | 2.82 | –
2 | O=C(O)c1cccc2c1OCCO2 [compound 7, 7] | – | 3.49

Source: article PMC11596857 (Molecules, 2024)
